Reference: PubChem BioAssay AID248 (DTP/NCI, 2004)
Values joined by “and” are separate entries in the source; they are usually repeats but may differ in a detail not shown here. Identical values can stand only once. Inconclusive results and toxic doses are left out. Cut-off read from the data, not from the text of the source: active = T/C of 150% or more; inactive = T/C below 125%.

Tested on: L1210 leukemia ip in BDF1 mice, survival T/C
Test: NCI In Vivo Anticancer Drug Screen. Data for tumor model L1210 Leukemia (intraperitoneal) in B6D2F1 (BDF1) mice
Settings: endpoint: mean survival time, higher = longer survival
Method in brief: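 Mice bearing the transplanted tumor received compound or vehicle. Survival of the treated group was divided by that of the vehicle-treated control group to give the ratio.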

[1] = dose: 100.0 mg/kg/injection, schedule: Q01DX009 (ip), vehicle: saline with Tween-80
[2] = dose: 200.0 mg/kg/injection, schedule: Q01DX009 (ip), vehicle: saline with Tween-80
[3] = dose: 100.0 mg/kg/injection, schedule: Q01DX009 (ip), vehicle: Klucel (hydroxypropylcellulose) (HPC)
[4] = dose: 100.0 mg/kg/injection, schedule: Q04DX003 (ip), vehicle: Klucel (hydroxypropylcellulose) (HPC)
[5] = dose: 200.0 mg/kg/injection, schedule: Q04DX003 (ip), vehicle: Klucel (hydroxypropylcellulose) (HPC)
[6] = dose: 400.0 mg/kg/injection, schedule: Q01DX009 (ip), vehicle: saline with Tween-80
[7] = dose: 100.0 mg/kg/injection, schedule: Q04DX003 (ip), vehicle: saline with Tween-80
[8] = dose: 200.0 mg/kg/injection, schedule: Q04DX003 (ip), vehicle: saline with Tween-80
[9] = dose: 400.0 mg/kg/injection, schedule: Q04DX003 (ip), vehicle: saline with Tween-80
[10] = dose: 50.0 mg/kg/injection, schedule: Q01DX009 (ip), vehicle: saline with Tween-80
[11] = dose: 200.0 mg/kg/injection, schedule: Q01DX009 (ip), vehicle: Klucel (hydroxypropylcellulose) (HPC)

Measured: T/C

CCOC(=O)c1cc(C=O)nc2c(Cl)cc(Cl)cc12
inactive: [1] 89 % of control | [2] 92 % of control

ClC(Cl)(Cl)c1ccc(C(Cl)(Cl)Cl)cc1
inactive: dose: 12.5 mg/kg/injection, schedule: Q01DX009 (ip), vehicle: Klucel (hydroxypropylcellulose) (HPC) 96 % of control | dose: 25.0 mg/kg/injection, schedule: Q01DX009 (ip), vehicle: Klucel (hydroxypropylcellulose) (HPC) 104 % of control | dose: 50.0 mg/kg/injection, schedule: Q01DX009 (ip), vehicle: Klucel (hydroxypropylcellulose) (HPC) 94 % of control and 97 % of control | [3] 94 % of control | [4] 105 % of control | [5] 91 % of control

COc1c(NC(=O)c2ccc(Cl)c(Cl)c2)cccc1[N+](=O)[O-]
inactive: [1] 89 % of control | [2] 89 % of control | [6] 89 % of control

CCCCCCCCC(C(=O)c1ccccc1)C(O)(C(F)(F)F)C(F)(F)F (configuration not stated)
inactive: [1] 100 % of control | [2] 106 % of control

CC(CCl)N(CCCl)Cc1cccc(Nc2ncnc3nc[nH]c23)c1 (configuration not stated)
inactive: dose: 1.1 mg/kg/injection, schedule: Q01DX015 (ip), vehicle: saline 122 % of control | dose: 1.8 mg/kg/injection, schedule: Q01DX015 (ip), vehicle: saline 112 % of control | dose: 3.0 mg/kg/injection, schedule: Q01DX015 (ip), vehicle: saline 109 % of control | dose: 4.4 mg/kg/injection, schedule: Q01DX001 (ip), vehicle: saline 120 % of control | dose: 5.0 mg/kg/injection, schedule: Q01DX001 (ip), vehicle: saline 121 % of control | dose: 5.0 mg/kg/injection, schedule: Q01DX015 (ip), vehicle: saline 102 % of control | dose: 6.6 mg/kg/injection, schedule: Q01DX001 (ip), vehicle: saline 120 % of control | dose: 20.0 mg/kg/injection, schedule: Q01DX001 (ip), vehicle: saline 117 % of control

N#Cc1c(N)sc2c1CCCC2
inactive: [1] 98 % of control | [7] 102 % of control | [2] 95 % of control | [8] 98 % of control | [6] 101 % of control | [9] 101 % of control

N#CC(C#N)C(=O)c1ccccc1
inactive: dose: 12.5 mg/kg/injection, schedule: Q01DX009 (ip), vehicle: saline with Tween-80 100 % of control | dose: 25.0 mg/kg/injection, schedule: Q01DX009 (ip), vehicle: saline with Tween-80 100 % of control | [10] 96 % of control | [7] 95 % of control | [8] 95 % of control | [9] 89 % of control

COc1ccc(/C(N=Nc2ccccc2)=N/N=C(N)N)cc1
inactive: dose: 20.0 mg/kg/injection, schedule: Q01DX001 (ip), vehicle: steriod suspending solution 105 % of control | dose: 40.0 mg/kg/injection, schedule: Q01DX001 (ip), vehicle: steriod suspending solution 94 % of control | dose: 80.0 mg/kg/injection, schedule: Q01DX001 (ip), vehicle: steriod suspending solution 96 % of control

Cc1ccc(NC(=O)c2ccccc2)cc1[As]=[As]c1cc(NC(=O)c2ccccc2)ccc1C (configuration not stated)
inactive: dose: 1.0 mg/kg/injection, schedule: Q01DX015 (ip), vehicle: carboxymethylcellulose (CMC) 90 % of control | dose: 2.0 mg/kg/injection, schedule: Q01DX015 (ip), vehicle: carboxymethylcellulose (CMC) 95 % of control | dose: 4.0 mg/kg/injection, schedule: Q01DX015 (ip), vehicle: carboxymethylcellulose (CMC) 101 % of control

CCOC(=O)CC1NCCC2C1CCC(OC)C2OC (configuration not stated)
inactive: [10] 106 % of control | [4] 98 % of control | [2] 95 % of control | [5] 104 % of control

O=[N+]([O-])c1ccc(N=Nc2ccc3c(c2)-c2ccccc2/C3=C\c2cccc([N+](=O)[O-])c2)cc1
inactive: dose: 100.0 mg/kg/injection, schedule: Q01DX001 (ip), vehicle: carboxymethylcellulose (CMC) 93 % of control | dose: 200.0 mg/kg/injection, schedule: Q01DX001 (ip), vehicle: carboxymethylcellulose (CMC) 96 % of control | dose: 400.0 mg/kg/injection, schedule: Q01DX001 (ip), vehicle: carboxymethylcellulose (CMC) 98 % of control

CC1(C)[C@H](C(=O)O)CC[C@]1(C)C(=O)O
inactive: dose: 100.0 mg/kg/injection, schedule: Q01DX001 (ip), vehicle: other 103 % of control | dose: 200.0 mg/kg/injection, schedule: Q01DX001 (ip), vehicle: other 103 % of control | dose: 400.0 mg/kg/injection, schedule: Q01DX001 (ip), vehicle: other 105 % of control

COC(=O)/C=C(\C(=O)OC)N(C)c1ccccc1
inactive: dose: 50.0 mg/kg/injection, schedule: Q01DX001 (ip), vehicle: other 106 % of control

O=C1c2ccccc2C(=O)N1c1ccccc1
inactive: [3] 98 % of control | dose: 100.0 mg/kg/injection, schedule: Q04DX002 (ip), vehicle: Klucel (hydroxypropylcellulose) (HPC) 91 % of control | [11] 98 % of control | dose: 200.0 mg/kg/injection, schedule: Q04DX002 (ip), vehicle: Klucel (hydroxypropylcellulose) (HPC) 94 % of control | dose: 400.0 mg/kg/injection, schedule: Q01DX009 (ip), vehicle: Klucel (hydroxypropylcellulose) (HPC) 95 % of control | dose: 400.0 mg/kg/injection, schedule: Q04DX002 (ip), vehicle: Klucel (hydroxypropylcellulose) (HPC) 88 % of control

CC1(C)N=C(c2ccccc2)C(c2ccccc2)=N1
inactive: [3] 105 % of control | [4] 108 % of control | [11] 98 % of control | [5] 97 % of control | dose: 400.0 mg/kg/injection, schedule: Q04DX003 (ip), vehicle: Klucel (hydroxypropylcellulose) (HPC) 115 % of control

Clc1ccc(/C=N/c2ccccn2)cc1
inactive: dose: 100.0 mg/kg/injection, schedule: Q01DX001 (ip), vehicle: saline 102 % of control | dose: 200.0 mg/kg/injection, schedule: Q01DX001 (ip), vehicle: saline 102 % of control | dose: 400.0 mg/kg/injection, schedule: Q01DX001 (ip), vehicle: saline 100 % of control

COC1OC2COC(c3ccccc3)OC2C(OC(=S)N(C)C)C1OC(=S)N(C)C (configuration not stated)
inactive: dose: 100.0 mg/kg/injection, schedule: Q04DX003 (ip), vehicle: saline sonified 94 % of control | dose: 200.0 mg/kg/injection, schedule: Q04DX003 (ip), vehicle: saline sonified 92 % of control | dose: 400.0 mg/kg/injection, schedule: Q04DX003 (ip), vehicle: saline sonified 92 % of control
